In patent publication US9453005B2, “Inhibition of influenza M2 proton channel” (The Trustees Of The University Of Pennsylvania, priority 2008, dated 2016):

Biological target: AM2(V27A) (Influenza A virus, UniProt P0DOF5, V27A)
Format: biochemical

SMILES	% Activity
NC1CCC2(CCCCC2)CC1 [Compound 8, Spiro[5.5]undec-3-ylamine]	8 (47.34%) 9 (68.39%)
CNC1CCC2(CCCCC2)CC1 [Compound 9, Methyl-spiro[5.5]undec-3-yl-amine]	8 (47.34%) 9 (68.39%)
Cl.NC12CC3CC(CC(C3)C1)C2 [amantadine, reference compound]	99.1%
